Source: patent publication US10499640B2, “Herbicidal compounds” (SYNGENTA PARTICIPATIONS AG, priority 2014, dated 2019)

Columns and labels:
Assay type in all cases: in vivo
[1] = system: Setaria faberi (SETFA); assay: Post-emergence herbicidal activity, glasshouse pot test; set-up: key: 5=total damage to plant; 0=no damage to plant; conditions: Rate 1000 g/Ha; sprayed after 8 days cultivation; evaluated after 13 days; scale 0-5
Experimental: (§1) Seeds of a variety of test species were sown in standard soil in pots. After 8 days cultivation (post-emergence) under controlled conditions in a glasshouse (at 24/16° C., day/night; 14 hours light; 65% humidity), the plants were sprayed with an aqueous spray solution derived from the formulation of the technical active ingredient in acetone/water (50:50) solution containing 0.5% Tween 20 (polyoxyethelyene sorbitan monolaurate, CAS RN 9005-64-5). The test plants were then grown in a glasshouse under controlled conditions (at 24/16° C., day/night; 14 hours light; 65% humidity) and watered twice daily. After 13 days, the test was evaluated (5=total damage to plant; 0=no damage to plant).

[2] = system: Abutilon theophrasti (ABUTH); assay: as above; set-up: key: 5=total damage to plant; 0=no damage to plant; conditions: Rate 1000 g/Ha; sprayed after 8 days cultivation; evaluated after 13 days; scale 0-5
Experimental: as §1

[3] = system: Echinochloa crus-galli (ECHCG); assay: as above; set-up: key: 5=total damage to plant; 0=no damage to plant; conditions: Rate 1000 g/Ha; sprayed after 8 days cultivation; evaluated after 13 days; scale 0-5
Experimental: as §1

[4] = system: Amaranthus retroflexus (AMARE); assay: as above; set-up: key: 5=total damage to plant; 0=no damage to plant; conditions: Rate 1000 g/Ha; sprayed after 8 days cultivation; evaluated after 13 days; scale 0-5
Experimental: as §1

[5] = system: Zea mays (ZEAMX); assay: as above; set-up: key: 5=total damage to plant; 0=no damage to plant; conditions: Rate 1000 g/Ha; sprayed after 8 days cultivation; evaluated after 13 days; scale 0-5
Experimental: as §1

[6] = system: Setaria faberi (SETFA); assay: Pre-emergence herbicidal activity, glasshouse pot test; set-up: key: 5=total damage to plant; 0=no damage to plant; conditions: Rate 1000 g/Ha; sprayed one day after sowing; evaluated after 13 days; scale 0-5
Experimental: as §1, with “After” for “After 8 days”, “for one day (pre-emergence)” for “(post-emergence)”

[7] = system: Abutilon theophrasti (ABUTH); assay: as above; set-up: key: 5=total damage to plant; 0=no damage to plant; conditions: Rate 1000 g/Ha; sprayed one day after sowing; evaluated after 13 days; scale 0-5
Experimental: as §1, with “After” for “After 8 days”, “for one day (pre-emergence)” for “(post-emergence)”

[8] = system: Echinochloa crus-galli (ECHCG); assay: as above; set-up: key: 5=total damage to plant; 0=no damage to plant; conditions: Rate 1000 g/Ha; sprayed one day after sowing; evaluated after 13 days; scale 0-5
Experimental: as §1, with “After” for “After 8 days”, “for one day (pre-emergence)” for “(post-emergence)”

[9] = system: Amaranthus retroflexus (AMARE); assay: as above; set-up: key: 5=total damage to plant; 0=no damage to plant; conditions: Rate 1000 g/Ha; sprayed one day after sowing; evaluated after 13 days; scale 0-5
Experimental: as §1, with “After” for “After 8 days”, “for one day (pre-emergence)” for “(post-emergence)”

[10] = system: Zea mays (ZEAMX); assay: as above; conditions: Rate 1000 g/Ha; sprayed one day after sowing; evaluated after 13 days; scale 0-5
Experimental: as §1, with “After” for “After 8 days”, “for one day (pre-emergence)” for “(post-emergence)”

Row | Structure (SMILES) | SETFA damage score, application post-emergence [1] | ABUTH damage score, application post-emergence [2] | ECHCG damage score, application post-emergence [3] | AMARE damage score, application post-emergence [4] | ZEAMX damage score, application post-emergence [5] | SETFA damage score, application pre-emergence [6] | ABUTH damage score, application pre-emergence [7] | ECHCG damage score, application pre-emergence [8] | AMARE damage score, application pre-emergence [9] | ZEAMX damage score, application pre-emergence [10]
1 | CN1CC(O)N(c2cc(C(C)(C)F)no2)C1=O (centres unmarked) [Compound A16] | 5 | 5 | 5 | 5 | 5 | 5 | 5 | 5 | 5 | 2
2 | C#CCN1CC(O)N(c2cc(C(C)(C)C)on2)C1=O (centres unmarked) [Compound A24] |  |  | 5 |  |  | 5 | 5 | 5 | 5 | 3
3 | CC(C)(C)c1cc(N2C(=O)N3COCC3C2O)no1 (centres unmarked) [Compound A21] | 5 | 5 | 5 | 5 | 4 | 5 | 5 | 5 | 5 | 3
4 | CCOC1C(O)N(c2cc(C(C)(C)F)no2)C(=O)N1C (centres unmarked) [Compound A19] | 5 | 5 | 5 | 5 | 4 | 4 | 4 | 5 | 5 | 2
5 | COC(C)(C)c1cc(N2C(=O)N(C)[C@H](C)C2O)no1 (some centres unmarked) [Compound A12] | 5 | 5 | 5 | 5 | 4 | 5 | 5 | 5 | 5 | 3
6 | COC(C)(C)c1cc(N2C(=O)N(C)C(C)C2O)no1 (centres unmarked) [Compound A10] | 5 | 5 | 5 | 5 | 5 | 5 | 5 | 5 | 5 | 3
7 | COCC1C(O)N(c2cc(C(C)(C)OC)on2)C(=O)N1C (centres unmarked) [Compound A15] | 5 | 5 | 5 | 5 | 3 | 5 | 5 | 5 | 5 | 2
8 | CON1C(=O)N(c2cc(C(C)(C)F)no2)C(O)C1C (centres unmarked) [Compound A18] | 5 | 5 | 5 | 5 | 4 | 5 | 5 | 5 | 5 | 2
9 | CON1C(=O)N(c2cc(C(C)(C)OC)on2)C(O)C1C (centres unmarked) [Compound A13] | 5 | 5 | 5 | 5 | 4 | 5 | 5 | 5 | 5 | 2
